Experimental findings from ChEMBL document CHEMBL3627601, “Poly(amidoamine) dendrimers show carbonic anhydrase inhibitory activity against α-, β-, γ- and η-class enzymes” (Bioorg Med Chem, 2015) are described below.

A short description of assay [1]: Inhibition of Leishmania donovani chagasi beta-carbonic anhydrase preincubated for 15 mins by stopped-flow CO2 hydration assay.
Assay [2] in a line: Inhibition of Vibrio cholerae alpha-carbonic anhydrase preincubated for 15 mins by stopped-flow CO2 hydration assay.
Assay [3] in a line: Inhibition of Candida glabrata beta-carbonic anhydrase preincubated for 15 mins by stopped-flow CO2 hydration assay. The arrangement: species or system Nakaseomyces glabratus.
A short description of assay [4]: Inhibition of Porphyromonas gingivalis gamma-carbonic anhydrase preincubated for 15 mins by stopped-flow CO2 hydration assay.
Assay [5] can be described thus: Inhibition of Porphyromonas gingivalis beta-carbonic anhydrase preincubated for 15 mins by stopped-flow CO2 hydration assay.
A short description of assay [6]: Inhibition of Plasmodium falciparum eta-carbonic anhydrase preincubated for 15 mins by stopped-flow CO2 hydration assay.
Assay [7] is described as follows: Inhibition of Cryptococcus neoformans beta-carbonic anhydrase preincubated for 15 mins by stopped-flow CO2 hydration assay.
Assay [8] in a line: Inhibition of Trypanosoma cruzi alpha-carbonic anhydrase preincubated for 15 mins by stopped-flow CO2 hydration assay.

The structures appear in SMILES notation.

The term Ki denotes the dissociation constant of the complex between target and ligand, obtained from inhibition or displacement. Read a high Ki as lower affinity. For the compound `NS(=O)(=O)c1ccc(C(=O)NCCNC(=O)CCN(CCC(=O)NCCNC(=O)c2ccc(S(N)(=O)=O)cc2)CCN(CCC(=O)NCCNC(=O)c2ccc(S(N)(=O)=O)cc2)CCC(=O)NCCNC(=O)c2ccc(S(N)(=O)=O)cc2)cc1`, the Ki in assay [1] was 75.4 nM; in assay [2] it was 47.2 nM; in assay [3] it was 427 nM; in assay [4] it was 405 nM; in assay [5], 84.9 nM; in assay [6], 69.7 nM. The Ki was 24 nM in assay [7] and 17.7 nM in assay [8].

On to `NS(=O)(=O)c1ccc(C(=O)NCCNC(=O)CCN(CCNC(=O)CCN(CCC(=O)NCCN(CCC(=O)NCCNC(=O)c2ccc(S(N)(=O)=O)cc2)CCC(=O)NCCNC(=O)c2ccc(S(N)(=O)=O)cc2)CCN(CCC(=O)NCCN(CCC(=O)NCCNC(=O)c2ccc(S(N)(=O)=O)cc2)CCC(=O)NCCNC(=O)c2ccc(S(N)(=O)=O)cc2)CCC(=O)NCCN(CCC(=O)NCCNC(=O)c2ccc(S(N)(=O)=O)cc2)CCC(=O)NCCNC(=O)c2ccc(S(N)(=O)=O)cc2)CCC(=O)NCCNC(=O)c2ccc(S(N)(=O)=O)cc2)cc1`, for which the Ki in assay [1] came out at 85.6 nM; in assay [2], 8.1 nM; in assay [3] it was 342 nM; in assay [4] it was 563 nM; in assay [5] it was 77 nM; in assay [6] it was 58.6 nM. Further, the Ki in assay [7] was determined as 83.6 nM; in assay [8], 95.4 nM.

Consider `CC(=O)Nc1nnc(S(N)(=O)=O)s1` [ACETAZOLAMIDE], for which the Ki was […] in assay [3], […] in assay [5] and […] in assay [7].
